Reference: paper PMC8330742, “New benzothieno[2,3-c]pyridines as non-steroidal CYP17 inhibitors: design, synthesis, anticancer screening, apoptosis induction, and in silico ADME profile studies” (Journal of Enzyme Inhibition and Medicinal Chemistry, 2021)
Several values for one entry are separate records, joined by “and”; a condition that tells them apart may be missing. Equal entries are not always repeated.

Legend:
HS 578 T = assay: NCI-60 SRB screen; format: cell-based, human; details: five dose;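 for IC50: half-maximal inhibitory concentration read as cell viability unlike GI50 net growth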
WI-38 human cell line = assay: In vitro cytotoxicity on WI-38 human cell line (MTT); format: cell-based; details: WI-38 normal human cell line
Method: Cell Line cells were obtained from American Type Culture Collection and were cultured using DMEM (Invitrogen/Life Technologies) supplemented with 10% FBS (Hyclone), 10 µg/ml of insulin (Sigma), and 1% penicillin-streptomycin. All of the other chemicals and reagents were obtained from Sigma or Invitrogen. Plate cells were incubated (cells density 1.2–1.8 × 10,000 cells/well) in a volume of 100 µL complete growth medium and 100 ul of the tested compound per well in a 96-well plate for 24 h before the MTT assay. The cultures were removed from the incubator into a laminar flow hood or other sterile work area followed by the addition of reconstituted MTT in an amount equal to 10% of the culture medium volume, then incubated for an additional 2 h. After the incubation period, cultures were removed from the incubator, and the resulted formazan crystals were dissolved by adding an amount of MTT solubilisation solution [M-8910] equal to the original culture medium volume, then the absorbance at a wavelength of 570 nm was measured. Finally, the IC50 of the tested compound compared to the reference was calculated using GraphPad Prism software.

CYP17 enzyme = CYP17 enzyme ELISA in mice prostate cancer model; format: in vivo; details: 5 mg/kg i.p., 5 days a week, ELISA of tissue (Mice testis)
Method: (§1) A total of 16 mice from the TRAMP/FVB background ([…], male, average 45 days, average weight […], mice with prostate cancer) were taken and divided into 2 groups with 8 animals in each group. One group of mice was given a drug in 0.2 ml of DMSO and phosphate-buffered saline (1:10) ratio (5 mg/kg body weight, i.p., 5 days a week). The control group animals were treated with 0.2 ml of DMSO and phosphate-buffered saline (1:10) ratio. A total of eight mice, four animals from each group, were examined at 13 weeks of age, and the remaining animals from each group were examined at 20 weeks for prostate tumour development. Treatment was stopped 24 h before killing the animals.
BioSource 2704060 96 assay kit is a sandwich enzyme immunoassay for in vitro quantitative measurement of CYP17 enzyme activity in mouse tissue homogenates, cell lysates, cell culture supernatant, and other biological fluids. Tested tissues were rinsed in ice-cold PBS to remove excess blood and weighed before homogenisation. The tissues were minced and homogenised in fresh lysis buffer with a glass homogeniser. (catalog: IS007, different lysis buffer needs to be chosen based on subcellular location of the target protein) (w:v = 1:20–1:50, e.g. 1 ml lysis buffer is added in 20–50 mg tissue sample) The resulting suspension was sonicated with an ultrasonic cell disrupter till the solution was clarified. The homogenates were centrifuged for 5 min at 10,000 × g, and the supernatant was collected. An Aliquot was assayed and stored at ≤ −20 °C.
The assay sample and standard were incubated together with CYP-HRP conjugate in an appropriate number of microplates pre-coated with an antibody specific for the CYP17 enzyme for 1 h. After the incubation period, the wells were decanted and washed five times. The wells were then incubated with a substrate for the HRP enzyme. […] Colour intensity was measured spectrophotometrically at 450 nm in a microplate reader. […]
Assay procedures: Wells for a standard, blank, and sample were prepared. […] The absorbance was measured immediately at 450 nm.

plasma testosterone = assay: Testosterone ELISA assay in mice prostate cancer model; format: in vivo
Method: as §1
The BioVendor mouse/rat testosterone ELISA assay is a competitive immunoassay for the measurement of testosterone in rat and mouse serum or plasma based on the principle of competitive binding. An unknown amount of testosterone present in the sample (plasma or serum) and a known amount of testosterone conjugated to horseradish peroxidase compete for the binding sites of testosterone antiserum coated to the wells of a microplate. The sample was incubated with the microplate for 1 h, then washed four times. The HRP substrate solution was added followed by the stop solution. Colour change has been observed, and the optical density was measured at 450 nm.
Assay procedures: Sufficient number of microplate wells were prepared to accommodate standard and samples in duplicates. The standard, sample, and control (10 µL each) were dispensed with new disposable tips into appropriate wells. Incubation buffer 100 µL was dispensed into each well. Afterward, enzyme conjugate (50 µL) was added to each well and incubated for 60 min at room temperature on a microplate mixer. The content of the wells was discarded, and the wells were rinsed 4 times with diluted wash solution (300 µL per well). The substrate solution (200 µL) was added to each well and incubated in the dark without shaking for 30 min. The reaction was stopped by adding a stop solution (2 N hydrochloric acid solution, 50 µL) to each well. The absorbance of each well was determined at 450 nm.

N#CC1C(=O)NC(c2ccccc2[N+](=O)[O-])c2sc3c(F)cccc3c21 (stereo not shown) [Compound 5c, 4-Cyano-8-fluoro-1-(2-nitrophenyl)-1,2-dihydro[1]benzothieno[2,3-c] pyridin-3(4H)-one]
GI50 (HS 578 T; Homo sapiens): 18.1 µM | IC50 (HS 578 T; Homo sapiens): > 100 µM | TGI (HS 578 T): 100 µM | IC50 (WI-38 human cell line): 34.1 µM | CYP17 enzyme aver. conc. (CYP17 enzyme): 15.8 nM and 15.80 nM and 15.80 ± 0.20 nM | potency relative to abiraterone (testosterone inhibition) (plasma testosterone): 1.1 folds | Plasma testosterone aver. conc. (plasma testosterone; 5 mg/kg i.p., 5 days a week, ELISA, 5 mg/kg): 12.26 nM and 12.26 ± 0.17 nM
